# According to US10023864B2, “Methods of treating a metabolic syndrome by modulating heat shock protein (HSP) 90-beta” (Berg LLC, priority 2014, dated 2018):
# “Also recorded” adds a separate entry of the source. d = 2'-deoxy (DNA); m = 2'-O-methyl
# Key:
# HSMM myotubes [1] = assay: Insulin signaling experiments in HSMM myotubes (western blot of phosphorylated Akt, ERK, GSK3β); type: cell-based, human
# Method: Human HSMM myotubes cells that were plated in 12 well plates the previous week were used. The media was aspirated and fresh media with appropriate dilutions of the NC and H3 siRNA for Hsp90 knockdown were added such that the final concentration in the wells of the plate was 100 nM. Minis TKO transfection reagent was used for transfecting the cells. The plate was then incubated at 37° C. overnight.
# The media was aspirated and the cells were washed off twice—first with warm PBS and second with 0.1% BSA containing growth media. The cells were then serum starved for 2-3 hours in 0.1% differentiation media containing the appropriate inhibitors at 37° C. followed by insulin stimulation for 5 minutes (0, 10, and 100 nM insulin).
# The wells were then washed once with PBS and harvested into 100 μl of RIPA buffer containing protease and phosphatase inhibitors. The plate was placed on ice and, using a cell scraper, the cells were scraped from the plate. The lysates were collected in 1.5 ml Eppendorf tubes and homogenized by using a syringe and needle. The lysates were then centrifuged at 4° C. for 10 mins at 14,000 RPM. The lysates can be stored at −20° C. for future use.
# Protein content was estimated by BCA assay and samples were prepared for gel electrophoresis and western blotting as described in subsequent sections. The total volume required to load 10 μg of total protein was calculated.
# The samples were loaded onto a bis-tris or a tris-glycine-SDS gel. Proteins were transferred to a PVDF or a nitrocellulose membrane using routine wet or dry transfer methods. The membranes were then blocked for at least an hour using the blocking buffer. The membranes were then cut prior to exposure to the appropriate primary antibodies diluted in blocking buffer for incubation. Primary antibodies to pAKT (p-Akt, S473), pERK(p-Erk, Phospho-p44/42 MAPK (Erk1/2) (Thr202/Tyr204), and pGSK3β (Phospho-GSK-3β (Ser9) were obtained from Cell Signaling Inc.® Other antibodies were also obtained from commercial sources. The membrane was placed in the shaker and incubated in the refrigerator (4° C.) overnight.
# Visualization of proteins and quantification of western blots was performed as follows. The membranes were washed thrice using 1×PBS-T (10 minutes each). […]
# Each strip of membrane was taken out arranged in a clean flat surface. […] The bands were quantified using the BIORAD® software.
# HSMM myotubes were sequentially (1) transfected with 3 different siRNAs targeting HSP90AB1 for 48 hours, (2) serum starved for 3 hours, and (3) subjected to stimulation of different concentrations of insulin (0, 10, 100 nM). Signaling events downstream of insulin stimulation were assessed by western blotting for levels of total and phosphorylated Akt, Erk, and GSK3β. […]
# HSMM myotubes [2] = assay: Seahorse bioenergetic profiling of myotubes (OCR); type: cell-based, human
# HSP90α and HSP90β = settings: HSP90α vs HSP90β; cited from earlier work
# human Hsp90AB1 protein = assay: Knockdown of Hsp90AB1 protein in HSMM by Western blotting; type: cell-based; settings: Western blot, normalized to actin, vs NC1
# Method: ASO1-ASO6 were tested for their ability to knock down human Hsp90AB1 levels in HSMM myotubes. The effectiveness of oligonucleotides ASO1 (A1), ASO2 (A2) ASO3 (A3) ASO4 (A4) ASO5 (A5) and ASO6 (A6) in knocking down the expression of HSP90AB1 protein is shown by Western blotting in FIGS. 19A and 19B. The oligonucleotide NC1 was used as a negative control. HSP90Ab1 protein levels were normalized to the levels of actin.
# (§1) The ASO oligonucleotides ASO5, ASO13 and ASO18 were tested for their ability to reduce expression of human Hsp90AB1 protein in human skeletal muscle myotubes (HSMM) and C2C12 mouse myoblasts by Western blotting. ASO5 was derived from the mouse HSP90ab1 gene, while ASO13 and ASO18 were directed to the human HSP90ab1 gene. The oligonucleotide NC1 was used as a negative control. HSP90AB1protein levels were normalized to the levels of actin.
# DIO mice [3] = assay: Heat production in DIO mice; type: in vivo, mouse; settings: eight weeks treatment
# Method: The CLAMS (Columbus Instruments, Columbus, Ohio, USA) metabolic monitoring cages are used to simultaneously monitor horizontal and vertical activity, feeding and drinking, oxygen consumption, and CO2 production. ASO injected and control mice are individually placed in CLAMS cages and monitored over a 4-day period after acclimation to the cages for 1-2 days. The various parameters are recorded in both fasted and fed conditions. Food and water consumption are measured directly as accumulated data. Hourly files display all measurements for each parameter: volume of oxygen consumed, ml/kg per h (VO2), volume of carbon dioxide produced, ml/kg per h (VCO2), respiratory exchange ratio, heat (kcal/h), accumulated food (g), accumulated drink (g), XY total activity (all horizontal beam breaks in counts), XY ambulatory activity (minimum three different, consecutive horizontal beam breaks in counts), and Z activity (all vertical beam breaks in counts). The data are recorded during the 30-s sampling period. The CLAMS data are analyzed by normalizing with lean body mass.
# [4] = tested on: Hsp90AB1 protein in C2C12 mouse myoblasts; assay: Hsp90AB1 protein expression in C2C12 mouse myoblasts by Western blotting; type: cell-based; settings: Western blot, normalized to actin, vs NC1
# Method: as §1
# DIO mice [5] = assay: Insulin level in DIO mice; type: in vivo, mouse
# Method: The mice were divided into four groups: (1) lean (non-diabetic control); (2) diabetic receiving control ASO (NC-ASO); (3) diabetic receiving ASO5; and (4) diabetic receiving ASO6. In various experiments mice were dosed intra-peritoneally with twice per week injection of ASO at […] body weight for 4 or 8 weeks. Skeletal muscles were subjected to quantitative PCR.
# Further, the effect of the reduction of Hsp90ab1 protein level on plasma insulin levels was examined.
compound,measurement,setting,value
CCc1cc(-c2n[nH]c(C)c2-c2ccc3c(c2)OCCO3)c(O)cc1O [CCT018159],effect on insulin signaling and bioenergetics compared with HSP90β knockdown alone,HSMM myotubes [1],less profound effect
same,level of pERK,HSMM myotubes [1]; CCT018159 and insulin,No significant changes; also recorded: no change
same,level of pGSK3β,HSMM myotubes [1]; CCT018159 and insulin,No significant changes; also recorded: no change
same,insulin stimulated phosphorylation of Akt (phospho-AKT),"HSMM myotubes [1]; CCT018159 then insulin, effect at the higher concentration, 10 uM",increase; also recorded: significantly enhanced
same,CCCP induced uncoupling response on mitochondrial metabolism,"HSMM myotubes [2]; CCT018159 at 1 μM, 3 μM, and 10 μM (FIG. 10 legend)",did not have a significant effect
same,uncoupled OCR,"HSMM myotubes [2]; myotubes, CCT018159 1 μM",increased
same,uncoupled (CCCP induced) OCR,"HSMM myotubes [2]; myotubes, CCT018159, 10 uM induced greater suppression",decreased in a concentration dependent manner
same,basal OCR,"HSMM myotubes [2]; myotubes, CCT018159 at different concentrations",no observed change
O=C(O)/C=C/c1nn(Cc2ccc(Cl)cc2Cl)c2cc(C(F)(F)F)ccc12 [gamendazole],HSP90 isoform preference,HSP90α and HSP90β,specific for HSP90β
C[C@@H]1C[C@H]2O[C@@H]2/C=C\C=C\C(=O)Cc2c(Cl)c(O)cc(O)c2C(=O)O1 [radicicol],HSP90 isoform preference,HSP90α and HSP90β,HSP90β is more sensitive
NVP-HS990,HSP90 isoform preference,HSP90α and HSP90β,inhibit both the HSP90α and HSP90β isoforms
"mA*mC*mU*mU*mC*mC*T*T*G*A*C*C*C*T*C*C*T*C*mU*mC*mC*mU*mC*mC (antisense ACUUCCTTGACCCTCCTCUCCUCC; sugars from the 5' end m6 d12 m6, all phosphorothioate, methylation of C not given here) [ASO3, modified antisense oligonucleotide derived from the mouse HSP90AB1 gene]",level of HSP90ab1 protein,human Hsp90AB1 protein,effective
"mA*mU*mC*mU*mC*mC*T*T*C*T*C*C*C*G*T*T*C*C*mU*mU*mC*mU*mC*mC (antisense AUCUCCTTCTCCCGTTCCUUCUCC; sugars from the 5' end m6 d12 m6, all phosphorothioate, methylation of C not given here) [ASO2, modified antisense oligonucleotide derived from the mouse HSP90AB1 gene]",heat production,DIO mice [3],improves
same,level of HSP90ab1 protein,human Hsp90AB1 protein,effective
"mA*mU*mG*mC*mC*mC*T*G*A*A*T*T*C*C*A*A*C*T*mG*mA*mC*mC*mU*mU (antisense AUGCCCTGAATTCCAACTGACCUU; sugars from the 5' end m6 d12 m6, all phosphorothioate, methylation of C not given here) [ASO18, modified ASO designed on homology among mouse, monkey and human HSP90ab1 genes]",Hsp90AB1 protein expression,[4],significantly decreased; also recorded: significantly reduced
same,level of HSP90ab1 protein,human Hsp90AB1 protein,significantly decreased; also recorded: significantly reduced
"mC*mC*mA*mC*mU*mU*C*C*T*T*G*A*C*C*C*T*C*C*mU*mC*mU*mC*mC*mU (antisense CCACUUCCTTGACCCTCCUCUCCU; sugars from the 5' end m6 d12 m6, all phosphorothioate, methylation of C not given here) [ASO5, modified antisense oligonucleotide derived from the mouse HSP90AB1 gene]",Hsp90AB1 protein expression,[4],did not significantly reduce
same,fed insulin levels,DIO mice [5],significant reduction
"mC*mU*mC*mU*mU*mC*C*T*C*T*G*C*C*T*C*A*T*C*mA*mU*mC*mA*mC*mU (antisense CUCUUCCTCTGCCTCATCAUCACU; sugars from the 5' end m6 d12 m6, all phosphorothioate, methylation of C not given here) [ASO13, modified ASO designed on homology among mouse, monkey and human HSP90ab1 genes]",Hsp90AB1 protein expression,[4],significantly decreased; also recorded: significantly reduced
same,level of HSP90ab1 protein,human Hsp90AB1 protein,significantly decreased; also recorded: significantly reduced
"mC*mU*mU*mC*mC*mU*T*G*A*C*C*C*T*C*C*T*C*T*mC*mC*mU*mC*mC*mA (antisense CUUCCUTGACCCTCCTCTCCUCCA; sugars from the 5' end m6 d12 m6, all phosphorothioate, methylation of C not given here) [ASO4, modified antisense oligonucleotide derived from the mouse HSP90AB1 gene]",level of HSP90ab1 protein,human Hsp90AB1 protein,effective
"mU*mC*mU*mC*mC*mU*T*C*T*C*C*C*G*T*T*C*C*T*mU*mC*mU*mC*mC*mA (antisense UCUCCUTCTCCCGTTCCTUCUCCA; sugars from the 5' end m6 d12 m6, all phosphorothioate, methylation of C not given here) [ASO1, modified antisense oligonucleotide derived from the mouse HSP90AB1 gene]",heat production,DIO mice [3],improves
same,level of HSP90ab1 protein,human Hsp90AB1 protein,effective
